Laboratory results published in patent US8299097B2, “Methods for treating inflammatory disorders” (The Brigham and Women's Hospital, Inc., priority 2008, dated 2012).

What was measured:
[1] = test system: human blood platelets; assay: Platelet activation, cytofluorographic detection of P-selectin (CD62P); format: cell-based; conditions: ADP 100 μM or LTE4 1 μM, 10 min
Description: FIG. 6. […] Each antibody (Ab) was diluted in 50 μl of sterile saline. […] 6A. PAS stains of the lungs of representative mice treated with isotype control (top) or with an anti-CD42 platelet-depleting antibody (bottom). 6B. Inflammation (top) and goblet cell metaplasia (bottom) in the lungs of mice treated with the indicated LT and antibody. A cohort of mice was treated with clopidogrel as indicated. Results in 6B are from a single experiment with 5 mice per group. […] 6C. […] Results are from a single experiment performed three times on different donors.
Platelets accumulate in the lungs of asthmatic individuals (Jeffery, P. K., et al. 1989. Am. Rev. Respir. Dis. 140:1745-1753), and are also recruited to the lungs of ovalbumin sensitized and challenged mice by an IgE-dependent mechanism (Pitchford, S. C., et al. 2008. Am. J. Respir. Crit. Care Med. 177:604-612).

[2] = test system: LAD2 cells; assay: Calcium flux of LAD2 cells stimulated with LTD4 or LTE4; format: cell-based, human; conditions: agonists 500 nM; MK571 1 μM, 2-MesAMP 100 μM
Description: FIG. 2. Requirement for P2Y12 receptors in LTE4-mediated LAD2 cell activation. 2A. Calcium flux of LAD2 cells stimulated with the indicated agonists (500 nM) in the presence or absence of the P2Y12 receptor-selective antagonist 2-MeSAMP (100 μM). […] 2B. […] Cells sensitized overnight with IgE and challenged with anti-IgE were used as the positive control. 2C. […] Results in 2B and 2C are mean±SEM from three independent experiments each. 2D. Effect of shRNA-mediated knockdown of P2Y12 receptor mRNA expression by LAD2 cells.
Pre-treatment of the LAD2 cells with 2-MesAMP blocked the LTE4-mediated increment in MIP-1β production by >50% (FIG. 2B). […] To exclude potential off-target effects of the inhibitors, samples of LAD2 cells were transfected with lentiviruses encoding a P2Y12 sequence-specific shRNA, a CysLT1R-specific shRNA, or an empty vector control before stimulation. […] LTE4- and LTD4-dependent production of PGD2 were abrogated by the knockdowns of P2Y12 and CysLT1R, respectively (FIG. 2C, bottom). Neither GPCR knockdown altered MIP-1β generation or PGD2 production in response to IgE-anti-IgE (FIG. 2C). LTE4-mediated MIP-1β generation (FIG. 9A) and ERK activation (FIG. 9B) were not altered by treatment of LAD2 cells with apyrase to degrade extracellular ADP.
LAD2 cells (0.5-1×10^6/sample) were washed and labeled with fura 2-AM for 30 min at 37° C. […]

[3] = biological target: T1, human CysLT1R (Homo sapiens, UniProt Q9Y271); assay: ERK activation in CysLT1R CHO transfectants; format: cell-based
T1 construct: expressed in transfected cells
T1 sequence (Q9Y271 1-337): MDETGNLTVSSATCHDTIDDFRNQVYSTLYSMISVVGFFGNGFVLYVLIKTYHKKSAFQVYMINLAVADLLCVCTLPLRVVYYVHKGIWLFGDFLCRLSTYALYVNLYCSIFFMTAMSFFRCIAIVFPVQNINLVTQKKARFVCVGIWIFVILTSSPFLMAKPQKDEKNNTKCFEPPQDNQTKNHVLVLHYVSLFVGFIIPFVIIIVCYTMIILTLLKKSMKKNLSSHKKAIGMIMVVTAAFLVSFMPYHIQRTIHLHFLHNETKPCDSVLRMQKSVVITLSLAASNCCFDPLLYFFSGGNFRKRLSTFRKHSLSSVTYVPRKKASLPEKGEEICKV
Description: FIG. 1. Activation by recombinant human P2Y12 receptors in response to cys-LTs. The human P2Y12 receptor cDNA was cloned in forward and reverse orientation into the expression vector pEF1/His B and transfected into CHO cells using Fugene HD reagent. Stably-expressing clones were selected using G418 (1000 μg/ml), and expression of the construct was confirmed by cytofluorographic detection of the HIS tag. 1A. […] 1B. SDS-PAGE immunoblots showing phosphorylation of ERK2 by CHO cells stably expressing human P2Y12 receptors in reverse (negative control) or forward orientations. […] The blots were stripped and re-probed with an antibody (Ab) recognizing total ERK1 and ERK2. […] 1C. Effect of the selective P2Y12 receptor antagonist 2-MesAMP (MeS) on ligand-induced ERK phosphorylation. P2Y12 receptor expressing CHO cells were stimulated with the same doses of agonists used in 1A, in the absence or presence of 2-MesAMP (100 μM). 1D. Comparison of P2Y12 receptor-mediated responses to cys-LTs with those of recombinant human CysLT1R and CysLT2R expressed in CHO cells, and the effect of the CysLT1R antagonist MK571 (1 μM).
A P2Y12 receptor cDNA was amplified by reverse transcriptase polymerase chain reaction (RT-PCR) from RNA extracted from primary hMCs and cloned into a mammalian expression vector. Expression was confirmed by detection of a histidine (HIS) tag by flow cytometry. […]

Row | Compound | CD62P expression by platelets [1] | effect on LTD4- or LTE4-mediated calcium flux [2] | effect on cys-LT-induced ERK activation [3]
1 | CCCCC/C=C\C\C=C/C=C/C=C/[C@@H](SC[C@H](N)C(=O)O)[C@@H](O)CCCC(=O)O [LTE4] | no CD62P expression was detected |  | 
2 | CN(C)C(=O)CCSC(SCCC(=O)O)c1cccc(/C=C/c2ccc3ccc(Cl)cc3n2)c1 (stereo not drawn) [MK571] |  | blocked calcium responses | susceptible
